Experimental data from patent US20010051654A1, “Treatment of inflammatory and autoimmune diseases” (priority 1997, published 2001).

Key:
[1] = set-up: species or system Sprague-Dawley rats; conditions: rat, in vivo, iv
Method: A single dose intravenous pharmacokinetics study with N-(pyrazine)carbonyl-L-phenylalanine-L-leucine boronic acid (1) was conducted in Sprague-Dawley rats (140 to 280 g). Animals were assigned to 3 groups (6/sex in Groups 1 and 2; 9/sex in Group 3). Animals in groups 1, 2, and 3 received 0.03, 0.1 or 0.3 mg/kg of 1, respectively, in the same dose volume.
Blood samples (approximately 1.0 mL) were collected from the jugular vein of animals pre-dose and at approximately 10 and 30 min and 1, 3 and 24 h post-dose on Day 1.

[2] = test system: 20 S proteasome; test: Ex vivo 20 S proteasome activity in peripheral white blood cells of rats
Method: This preparation procedure applies to blood samples collected from mammals, particularly rats, mice, dogs, pigs, rabbits, non-human primates, or human subjects. Peripheral white blood cells are separated from blood samples upon collection for storage at about −70° C. until tested. To avoid interference with the assay due to the presence of endogenous proteasome inhibitors, it is important that red blood cells be rigorously excluded.
The blood sample is diluted 1:1 (v/v) with sterile saline, and the blood-saline mixture is layered over NYCOPREP™ separation medium (GIBCO BRL Products) in a 14×75 mm polystyrene test tube at a ratio of approximately 2:1 blood:NYCOPREP™. The sample is centrifuged at 500 x g for approximately 30 minutes at room temperature. The top layer is removed, leaving ˜2-3 mm of the cell band between the top and bottom layers. The remaining cell band is transferred by pipette to a clean centrifuge tube. The cell band is washed with 3 mL of cold phosphate-buffered saline and centrifuged at 400 x g for 5 minutes at 4° C. The supernatant is poured off and the pellet is resuspended in ˜1 mL of cold phosphate-buffered saline. The suspension is transferred to a 1.5 mL Eppendorf microfuge tube and microfuged at 6600 x g for approximately 10 minutes at 4° C. The supernatant is aspirated off and the cell pellet is stored at −70° C.±10° C.
Measurement of this rate in the absence and in the presence of an inhibitor allows a determination of how enzyme is bound by inhibitor. This assay is used to measure 20 S proteasome activity in peripheral white blood cells in mammals, particularly rats, mice, dogs, pigs, rabbits, non-human primates, or human subjects.
The amount of 20 S proteasome activity in the test sample is calculated according to the following formula: [formula]
Dose formulations of 1 were prepared daily during the course of the study. Dilutions were prepared from a stock solution. The stock solution of 1 was made up in 98% saline (0.9%), 2% ethanol with 0.1% ascorbic acid. Dilutions of the stock were made in the same vehicle.
Drugs were administered in vehicle intravenously (IV) using a dose volume of 100 μL per mouse or 1.0 mL/kg in rats. Control groups were administered with the vehicle (98% saline [0.9%], 2% ethanol, 0.1% ascorbic acid). Animals were dosed with 1 as a single IV bolus given either once or on multiple occasions.
Following IV dosing with 1, blood was withdrawn at various time points and peripheral white blood cells were isolated.
Blood samples were collected at 1.0, 24 and 48 h following administration of 1.
In an additional repeat dose study, male Sprague-Dawley rats (250 to 450 g; n=6 per group) were treated with twice weekly intravenous doses of 1 (0.01 to 0.35 mg/kg/day in a dose volume of 1.0 mL/kg) for two weeks. The vehicle was 0. […] Blood samples were collected 1.0 h after the last dose for evaluation of 20 S proteasome activity.

[3] = alternate daily IV for 14 days, 24 h after last dose
[4] = daily IV for 7 days, 24 h after last dose
[5] = once weekly IV for 8 weeks, 24 h after last dose

CC(C)C[C@H](NC(=O)[C@H](Cc1ccccc1)NC(=O)c1cnccn1)B(O)O [Compound 1, N-(pyrazine)carbonyl-L-phenylalanine-L-leucine boronic acid]
clearance from the blood [1]: rapidly cleared | time to peak concentration (Tmax) ([1]; 0.3 mg/kg): ~10 min | 20 S proteasome activity in white blood cells ([2]; 1.0 h after single IV 0.03 to 0.3 mg/kg, female Wistar rats): significant (p<0.05) dose-related decrease | 20 S proteasome activity in white blood cells ([2]; 24 h after single IV 0.03 to 0.3 mg/kg, female Wistar rats): smaller, but remained significant (p <0.05) in the higher dose groups | 20 S proteasome activity in white blood cells ([2]; 48 h after single IV 0.03 to 0.3 mg/kg, female Wistar rats): no longer significantly decreased | 20 S proteasome activity in white blood cells [2, 3]: significant dose-related decrease | dose groups with significant (p<0.05) decrease in 20 S proteasome activity [2, 3]: > 0.2 mg/kg | 20 S proteasome activity in white blood cells [2, 4]: dose-related decrease | doses with significant inhibition of 20 S proteasome activity [2, 4]: > 0.05 mg/kg | 20 S proteasome activity in white blood cells [2, 5]: significant (p<0.05) dose-related decrease | dose groups with significant (p<0.05) decrease in 20 S proteasome activity [2, 5]: > 0.1 mg/kg | 20 S proteasome activity in white blood cells ([2]; twice weekly IV for 2 weeks (4 doses, 0.01 to 0.35 mg/kg/day), 1.0 h after last dose, male Sprague-Dawley rats): dose-related decrease | dose groups with significant (p<0.05) decrease in 20 S proteasome activity ([2]; twice weekly IV for 2 weeks, 1.0 h after last dose, male Sprague-Dawley rats): > 0.03 mg/kg
